Experimental data from patent publication US8022052B2, “Inhibition of PPAR gamma expression by specific osteogenic oxysterols” (The Regents of the University of California, priority 2006, dated 2011).
“Also recorded” adds a separate entry of the source.

How the values were obtained:
[1] = test system: GATA; experiment: GATA luciferase reporter in M2 cells; type: cell-based, mouse; conditions: 24 and 48 h, data not shown
Text: (§1) M2 cells at 70% confluency in a 24-well plate were transiently transfected with: a plasmid containing three tandem repeats of the PPAR response element (PPRE) upstream of the basic thymidine kinase promoter (p3xPPRE-TK-Luciferase), a control pTK-Luciferase plasmid devoid of PPRE, a CMX-PPARγ expression plasmid (all kind gifts of Dr Peter Tontonoz), a CMX-RXRα expression plasmid (kind gift of Dr Sotirios Tetradis), and a pTK-Renilla-Luciferase plasmid (Promega, Madison, Wis., USA) using Fugene 6 Transfection Reagents from Roche (Indianapolis, Ind., USA). Luciferase activity assay was performed using Dual-Luciferase Reporter 1000 Assay System (Promega, Madison, Wis., USA). Luciferase reporter activity was normalized to Renilla Luciferase activity. […] For GATA reporter assays, M2 cells were transfected with a GATA Luciferase reporter vector or a control reporter vector (both from Panomics, Fremont, Calif., USA), and pTK-Renilla-Luciferase plasmid.

[2] = test system: GATA2, GATA3, Gilz, and pref-1; experiment: GATA2, GATA3, Gilz and pref-1 expression in M2 cells by RT-qPCR; type: cell-based, mouse; conditions: 24 and 48 h, data not shown
Text: (§2) Total RNA was extracted with the RNA isolation kit from Stratagene (La Jolla, Calif., USA) according to the manufacturer's instructions. RNA was DNase-treated using DNA-free kit from Ambion (Austin, Tex., USA). Three micrograms of RNA was reverse-transcribed using reverse transcriptase from Stratagene to make single-stranded cDNA. The cDNA was mixed with Qi SYBR Green Supermix (Bio-Rad) for quantitative RT-PCR assay using a Bio-Rad I-cycler IQ quantitative thermocycler. All PCR samples were prepared in triplicate wells of a 96-well plate. After 40 cycles of PCR, melt curves were examined to ensure primer specificity. Fold changes in gene expression were calculated using the ΔΔCt method. […] Primers used are as follows: PPARγ2 (5′-[…]-3′ and 5′-[…]-3′), C/EBPα (5′-[…]-3′ and 5′-[…]-3′), ap2 (5′-[…]-3′ and 5′-[…]-3′), LPL (5′-[…]-3′ and 5′-[…]-[…]), GATA2 (5′-[…]-3′ and 5′-[…]-3′), GATA3 (5′-[…]-3′ and 5′-[…]-3′), GILZ (5′-[…]-3′ and 5′-[…]-3′), and pref-1 (5′-[…]-3′ and 5′-[…]-3′).

[3] = test system: LXRs; experiment: LXR activation in M2 cells; type: cell-based, mouse; conditions: data not shown
[4] = test system: C/EBPα; experiment: C/EBPα mRNA expression in M2 cells by quantitative real-time PCR; type: cell-based, mouse; conditions: 10 μM Tro, 5 μM 20S, 24, 48, 96 hours
Protocol: . M2 cells at confluence were treated with control vehicle, 10 μM Tro, or 5 μM 20S, alone or in combination for 24 (FIG. 3A), 48 (FIG. 3B), and 96 (FIG. 3C) hours. C/EBPα mRNA expression was measured by quantitative real-time PCR. Fold changes in gene expression relative to the control were calculated using the ΔΔCt method and reported as the mean of triplicate determination ±SD (p<0.0001 for Tro vs. control and p<0.001 for Tro+20S vs. control at 24 hours (FIG. 3A); p<0.0001 for Tro vs. control and p<0.001 for Tro+20S vs. control at 48 hours (FIG. 3B); p<0.0001 for Tro or Tro+20S vs. control at 96 hours (FIG. 3C).

[5] = test system: aP2; experiment: aP2 mRNA expression in M2 cells by quantitative real-time PCR; type: cell-based, mouse; conditions: 10 μM Tro, 5 μM 20S, 24, 48, 96 hours
Protocol: . M2 cells at confluence were treated with control vehicle, 10 μM Tro, or 5 μM 20S, alone or in combination for 24 hours (FIG. 4A), 48 hours (FIG. 4B), and 96 hours (FIG. 4C). aP2 mRNA expression was measured by quantitative real-time PCR. Fold changes in gene expression relative to the control were calculated using the ΔΔCt method and reported as the mean of triplicate determination ±SD (p<0.0001 for Tro or Tro+20S vs. control or 20S and p<0.01 for Tro vs. Tro+20S at 24 hours (FIG. 4A); p<0.0001 for Tro or Tro+20S vs. control or 20S and for Tro vs. Tro+20S at 48 hours (FIG. 4B); p<0.0001 for Tro vs. control, 20S, or Tro+20S and p<0.001 for Tro+20S vs. control or 20S at 96 hours (FIG. 4C)).

[6] = test system: murine PPARγ2 promoter; experiment: PPARγ2 promoter luciferase activity induced by C/EBPα overexpression in M2 cells; type: cell-based, mouse; conditions: p19-PPARγ2 with MSV-C/EBPα plasmid, 24 h
Protocol: For PPARγ promoter activity assays, M2 cells were transiently transfected with a murine PPARγ2 promoter construct luciferase plasmid (p19-PPARγ2; (kind gift of Dr Steven McKnight), along with MSV-C/EBPα overexpression plasmid (kind gift of Dr. Sophia Tsai) and pTK-Renilla-Luciferase plasmid. Luciferase activity was measured after 24 h and normalized for transfection efficiency using the Renilla Luciferase activity.
To determine if 20S and Shh inhibit PPARγ expression by acting directly on its promoter, we focused on C/EBPα regulated PPARγ promoter activity.
(§3) After 10 days, adipocyte formation was measured by Oil red O staining. The number of adipocytes was determined by counting Oil red O-positive cells in five separate fields per well, in three wells per experimental condition. […] After 48 h, PPARγ mRNA expression was measured by quantitative real-time PCR. […] Luciferase activity was measured after 24 h and normalized for transfection efficiency using the Renilla luciferase activity.

[7] = test system: M2-10B4 (M2) murine pluripotent bone MSC line; conditions: cited from earlier work
[8] = test system: PPARγ; experiment: PPARγ mRNA expression in M2 cells by RT-qPCR; type: cell-based, mouse; conditions: M2 cells, 10 μM Tro, oxysterol 5 μM; 24, 48, 96 h (20S), 48 h (Oxy13)
Protocol: (§4) M2 mouse MSCs were purchased from American Type Culture Collection (ATCC, Rockville, Md., USA). […] Cell culture was performed in 24- and 6-well plates for adipogenic differentiation and gene expression studies, respectively, and treatment with test agents was done in growth medium.
as §2
(§5) Adipocyte formation was examined by Oil red O staining. […] PPARγ expression was assessed by RT-qPCR after treating M2 cells with Tro in the presence or absence of 20S. […] M2 cells at confluence were treated with control vehicle, 10 μM Tro, or 5 μM 20S, alone or in combination for 24 hours (FIG. 2A), 48 hours (FIG. 2B), and 96 hours (FIG. 2C). PPARγ mRNA expression was measured by quantitative real-time PCR.
as §3
After 48 hours of treatment, RNA was extracted from cells and analyzed for PPARγ expression by Q-RT-PCR. Data from a representative experiment, normalized to GAPDH expression, are reported as the mean of triplicate determinations ±SD.

[9] = test system: M2-10B4 (M2) murine pluripotent bone MSC line; experiment: Tro-induced adipocyte formation in M2 cells, Oil red O staining; type: cell-based, mouse; conditions: M2 cells, 10 μM Tro, oxysterol 5 μM, 10 days
Protocol: as §4
Oil red O staining for detection of adipocytes was performed as previously described. […] The number of adipocytes was quantitated by counting Oil red O-positive cells in five separate fields per well, in three wells per experimental condition. The results are reported as the mean of triplicate determination ±SD.
as §5, §3
Synthetic oxysterol compounds were studied for inhibition of adipogenesis and PPAR expression. […] After 10 days of treatment, cells were stained with Oil-red-O to detect adipocytes, and the number of positively stained cells was determined using light microscopy. Data from a representative experiment are reported as the mean of triplicate determination (average of five fields per well, 3 wells per experimental condition) ±SD.

[10] = test system: PPARγ; experiment: PPRE luciferase reporter assay (PPARγ transcriptional activity) in M2 cells; type: cell-based, mouse
Text: as §1
M2 cells were transiently transfected with a reporter construct containing three tandem repeats of a PPRE (pTK-3×PPRE-Luciferase) or the control plasmid (pTK-Luciferase). Cells were treated with 10 μM Tro or control vehicle, and luciferase activity was measured after 24 and 48 h. […] Because PPARγ and retinoid X receptor (RXR) form obligatory heterodimers, we studied whether 20S would have an effect when both PPARγ and RXRα were overexpressed. […] Luciferase activity was measured after 24 hours and normalized for transfection efficiency using the Renilla luciferase activity. […] Luciferase activity was normalized for transfection efficiency using the Renilla luciferase activity. […] Luciferase activity was measured after 24 hours and normalized to the Renilla luciferase activity.

For `CC(C)CCC[C@](C)(O)[C@H]1CC[C@H]2[C@@H]3CC=C4C[C@@H](O)CC[C@]4(C)[C@H]3CC[C@@]21C` [Oxy 20S, 20(S)-hydroxycholesterol], which GATA transcriptional activity [1] is on record?
Its GATA transcriptional activity is “does not increase”.

And the “GATA2/GATA3, Gilz, and pref-1 gene expression” value [2]?
The value was “does not increase”.

And the “activation of LXRs” value [3]?
The value was “activation”.

What about the “effect of 20S on Tro-induced C/EBPα mRNA expression” value [4] of the same compound?
The value was “did not inhibit”.

And the “effect of 20S on Tro-induced aP2 mRNA expression” value [5]?
Its value is “inhibited”.

And the “inhibition of PPARγ2 promoter activity induced by C/EBPα overexpression” value [6]?
Its value is “greatly inhibited; also recorded: inhibit; also recorded: significantly inhibited”.

What about the “adipogenic differentiation of M2 cells (previously reported)” value [7] of the same compound?
The value was “inhibit”.

And the “inhibition of Tro-induced PPARγ mRNA expression” value [8]?
Its value is “completely inhibited; also recorded: almost completely blocked; also recorded: specifically inhibited; also recorded: inhibits”.

What about the “inhibition of Tro-induced adipocyte formation” value [9] of the same compound?
Its value is “completely inhibited; also recorded: significantly inhibited”.

What about the “effect of 20S on Tro-induced PPRE reporter activity (PPARγ transcriptional activity)” value ([10]; M2 cells overexpressing PPARγ) of the same compound?
Its value is “did not inhibit but rather enhanced; also recorded: not inhibited but rather enhanced; also recorded: does not inhibit”.

And the “effect of 20S on PPARγ-RXRα induced PPRE reporter activity” value ([10]; M2 cells overexpressing PPARγ and RXRα, 24 hours)?
Its value is “did not inhibit; also recorded: enhanced”.

What about the “effect of 20S on Tro-induced PPRE reporter activity” value ([10]; M2 cells without PPARγ overexpression, 24 hours) of the same compound?
Its value is “did not inhibit Tro-induced PPRE reporter activity, but instead caused a small but significant increase”.
